Assay results reported in patent publication US20160169850A1, “SENSOR MOLECULE” (University of Malta, priority 2014, published 2016).
Where two headings read alike, the source gives them in different places.

What was measured:
[1] = CH3CN; known sensor; cited from earlier work
[2] = CH3CN; known sensor; cited from earlier work; remark: listed apart in the source
[3] = 1:1 methanol:water, excess H^+ (pH 3), emission at 525 nm
[4] = for Fluorescent Output: 1:1 MeOH:H2O

For `CN(CC1=CSC(=C2SC=CS2)S1)Cc1c2ccccc2cc2ccccc12` [Compound 2], the “Quantum Yield (ΦF)” value [1] is given as 0.015 and the “Fluorescent Enhancement (FE)” value [2] is given as 5.

With “N-ferrocenyl-4-methylpiperazine-1,8-naphthalimide [Compound 5]” the “−log [Fe^3+] at equivalence point” value [3] was 5.1, the “Output emission, logic level” value (Condition A: H^+ low, Fe^3+ low) was “low (Output is considered high when >0.050)” and the “Output emission, logic level” value (Condition B: 0.2 mM H^+, Fe^3+ low) was “low (Output is considered high when >0.050)”. For the same molecule, the “Output emission, logic level” value (Condition C: H^+ low, 10 μM Fe(III)) was “low (Output is considered high when >0.050)”, the “Output emission, logic level” value (Condition D: 0.2 mM H^+ and 10 μM Fe(III)) was “high (Output is considered high when >0.050)” and the “visual output under UV lamp” value ([4]; 365 nm light, high acid and Fe(III), 1:1 methanol/water) was “bright green fluorescent”. For the same molecule, the “Fluorescent Output” value ([4]; Condition A: no inputs) was “Low”, the “Fluorescent Output” value ([4]; Condition D: Fe(III) and H^+ both) was “High” and the fluorescence enhancement ([4]; both inputs versus no input or one input, 1:1 methanol:water) was 19 fold.
